US5316775A, “Method of treating hepatitis B infection” (Kremers-Urban Company, priority 1993, dated 1994)
Values joined by “and” are separate entries in the source; they are usually repeats but may differ in a detail not shown here. Equal values may be shown once. Read-outs that look alike come from different tables or passages of the source.

Legend:
Type in all cases: cell-based
HBV = assay: antihepatitis viral activity: HBV virion DNA and intracellular HBV DNA in cultured cells (blot hybridization)
Description: Details of the assay methodology can be found in: Korba and Milman, Antiviral Res., 15:217 (1991) and Korba and Gerin, Antiviral Res. (1992) (in press). The antiviral evaluations were performed on two separate passages of cells. All wells, in all plates, were seeded at the same density and at the same time. Due to the inherent variations in the levels of both intracellular and extracellular HBV DNA, only depressions greater than 3.5-fold (for HBV virion DNA) or 3.0-fold (for HBV DNA replication intermediates) from the average levels for these HBV DNA forms in untreated cells are generally considered to be statistically significant [P<0.05]. The levels of integrated HBV DNA in each cellular DNA preparation (which remain constant on a per cell basis in these experiments) were used to calculate the levels of intracellular HBV DNA forms, thereby eliminating technical variations inherent in the blot hybridization assays.
Typical values for extracellular HBV virion DNA in untreated cells range from 50 to 100 pg/ml culture medium (average of approximately 76 pg/ml). Intracellular HBV DNA replication intermediates in untreated cells range from 50 to 100 pg/μg cell DNA) (average approximately 74 pg/μg cell DNA). In general, depressions in the levels of intracellular HBV DNA due to treatment with antiviral compounds are less pronounced, and occur more slowly, than depressions in the levels of HBV virion DNA).
In the following data table, data is shown concerning analysis of intracellular HBV DNA at 24 hours following the 9th day of treatment. DNA in each cell DNA preparation were used to calculate the levels of episomal 3.2 Kb HBV genomes (MONO.) and HBV DNA replication intermediates (RI). A "zero" indicates an undetectable level of HBV DNA, sensitivity cutoff was 0.1 pg/ml.

[1] = toxicity analysis: uptake of neutral red dye; conditions: triplicate cultures, ± standard deviation, read-out: Neutral Red Dye Uptake at Indicated Drug Concentration
Description: (§1) Toxicity analyses were performed in order to assess whether any observed antiviral effects are due to a general effect on cell viability. The method used was uptake of neutral red dye, a standard and widely used assay for cell viability in a variety of virus-host systems, including HSV and HIV.
(§2) Toxicity results were performed in 96-well flat bottomed tissue cultures plates. Cells for the toxicity analyses were cultured and treated with test compounds with the same schedule as used for the antiviral evaluations. Each compound was tested at four concentrations, each in triplicate cultures. Uptake of neutral red dye was used to determine the relative level of toxicity. The absorbance of internalized dye at […] (A510) was used for the quantitative analysis. Values are presented as a percentage of the average A510 values (±standard deviations) in nine separate cultures of untreated cells maintained on the same 96-well plate as the test compounds.

cell viability = assay: toxicity analysis: uptake of neutral red dye; conditions: triplicate cultures, ± standard deviation
Description: as §1, §2

Nc1ccn([C@H]2CC[C@@H](CO)O2)c(=O)n1 [2',3'-ddC, 2,3'-dideoxycytosine]
effect on HBV DNA replication (in words) (HBV): significant depressions of HBV DNA replication
Intracellular HBV DNA MONO. (episomal 3.2 Kb HBV genomes) (HBV; 10 μM, 24 hours following the 9th day of treatment): 1.6 pg/μg CELL DNA and 1.8 pg/μg CELL DNA
HBV VIRION DNA DAY 0 (HBV; 10 μM, day 0): 63 pg/ml CULTURE MEDIUM and 87 pg/ml CULTURE MEDIUM and 82 pg/ml CULTURE MEDIUM
HBV VIRION DNA DAY 3 (HBV; 10 μM, day 3): 75 pg/ml CULTURE MEDIUM and 56 pg/ml CULTURE MEDIUM and 61 pg/ml CULTURE MEDIUM
HBV VIRION DNA DAY 6 (HBV; 10 μM, day 6): 26 pg/ml CULTURE MEDIUM
HBV VIRION DNA DAY 9 (HBV; 10 μM, day 9, zero = undetectable, cutoff 0.1 pg/ml): 2 pg/ml CULTURE MEDIUM and 1 pg/ml CULTURE MEDIUM
inhibition at 9 µM (HBV; Hepatitis B virus, read-out: depression of HBV RI relative to average levels in untreated cells): 90%
viability ([1]; 1000 μg/ml): 12 ± 5%
viability ([1]; 3000 μg/ml): 40 ± 4%
Neutral Red Dye Uptake at Indicated Drug Concentration (cell viability; 10 μg/ml): 102 ± 2 % of Control
Neutral Red Dye Uptake at Indicated Drug Concentration (cell viability; 30 μg/ml): 101 ± 3 % of Control
